Assay results reported in US7390630B1, “Method of identifying a compound that selectively inhibits cytokine-stimulated T cell induced production of TNF-alpha by monocytes” (Mathilda and Terence Kennedy Institute of Rheumatology Trust, priority 1999, dated 2008).
pIC50: −log10 of the molar value. “And” between values parts separate entries of the source, which are not always exact repeats. Equal entries are not always repeated. Values belong to the compound of their own block, whether it stands above or below them.

Assays:
Assay type in all cases: cell-based, Human
[1] = test system: TNFα production in osteoarthritis (OA) synovial cultures; assay: TNFα production in osteoarthritis (OA) synovial cultures; conditions: 48 h
Protocol: (§1) Osteoarthritis (OA) mononuclear cells were obtained from synovial tissue specimens provided by the Rheumatology Clinic, Charing Cross Hospital, London, UK. As in the case of RA cells (above), OA synovial tissue was teased into small pieces and digested in medium containing 0.15 mg/ml DNase type 1 (Sigma, UK) and 5 mg/ml collagenase (Roche, UK) for 1 to 2 hours at 37° C. After passing cells through nylon mesh to exclude cell debris, cells were washed and resuspended in RPMI medium (BioWhittaker, Verviers, Belgium) (containing 10% heat-inactivated FCS) at a density of 1×10^6 cells/ml and used immediately.
(§2) Reagents for the TNFα ELISA were provided by Dr. W. Buurman (Rijks Universiteit Limburg, Maastricht, Netherlands). The ELISA was performed using immobilized anti-TNFα mAb 61E71. and developed using a rabbit anti-TNFα polyclonal antibody. An alternative ELISA for TNFα is commercially available from Pharmingen. The rabbit polyclonal antibody was detected using a peroxidase-conjugated goat anti-rabbit IgG (H+L) (Jackson Immunoresearch Laboratories Inc., Westgrove, PE, USA) followed by an appropriate substrate. The sensitivity range of the assay was 1.6 to 5000 pg/ml.
The effect of the PI3 kinase inhibitor, LY294002, was studied on TNFα production in osteoarthritis (OA) synovial cultures. OA synovial joint cultures were cultured for 48 hours in the presence of increasing concentrations of the PI3 kinase inhibitor, LY294002. Culture supernatants were then harvested and assayed for TNFα (pg/ml) by ELISA.

[2] = test system: monocyte TNFα production induced by anti-CD3 antibody stimulated T-cells (Ttcr cells); assay: Ttcr cell-induced TNFα production by monocytes (co-culture, ELISA); conditions: for pIC50: Homo sapiens, Monocyte, T cells:monocytes 5:1, 18 h co-culture, read-out: IC50, inhibition of monocyte TNFα production induced by Ttcr cells
Protocol: Human peripheral blood T cells and monocytes were isolated from single donor plateletpheresis residues (purchased from the North London Blood Transfusion service, Colindale, GB). Mononuclear cells were isolated by Ficoll/Hypaque centrifugation (specific density 1.077 g/ml, Nycomed Pharma AS, Oslo, Norway), prior to cell separation in a Beckman JE6 elutriator. Elutriation was performed in culture medium containing 1% heat-inactivated foetal calf serum (FCS) using methods known in the art (see Sebbag et al., 1997, Parry et al., 1997). T cell and monocyte purity were assessed by flow cytometry (see Sebbag et al., 1997).
Ttcr cells: Ttcr cells were prepared from elutriation enriched T cells by resuspending the cells at a density of 10^6 cells/ml in RPMI 1640 (containing 10% heat inactivated AB+ human serum (Biowhittaker, UK). Following resuspension, the cells were incubated (at 37° C. in a 5% CO2/95% humidified incubator) in 6-well culture plates with immobilised anti-CD3 monoclonal antibodies for 24 hours (OKT3, ATCC, Maryland, USA), the antibodies having previously been coated on to the 6-well culture plates at 10 μg/ml (overnight at 4° C.).
Following completion of the culture period, the Tck and Ttcr cells were harvested and washed three times in RPMI medium containing 1% heat-inactivated fetal calf serum (FCS), prior to fixation for 1 minute at 0° C. in PBS containing 0.05% glutaraldehyde, and neutralized with an equivalent volume of T lymphocyte neutralizing buffer containing 0.2 M glycine. […]
(§3) Reagents for the TNFα ELISA were provided by Dr. W. Buurman (Rijks Universiteit Limburg, Maastricht, Netherlands). […] The rabbit polyclonal antibody was detected using a peroxidase-conjugated goat anti-rabbit IgG (H+L) (Jackson Immunoresearch Laboratories Inc., Westgrove, PE, USA) followed by an appropriate substrate. […]
(§4) Monocytes were treated with M-CSF for 2 days as described above, infected with adenovirus containing either an insert encoding IκBα (AdvIκBα) or no insert (Adv0). The effect of IκBα over-expression on T cell-induced monocyte (ratio 5:1) TNFα production was then determined.

[3] = test system: monocyte TNFα production induced by RA CD3+ enriched cells; assay: Monocyte TNFα production induced by fixed RA synovial CD3+ enriched T cells; conditions: for TNFα: LY294002 50 μM 30 min, Wortmannin 500 nM 30 min, AKTA 5 mM 30 min, Rapamycin 10 μM 60 min, untreated control 686 ± 59, mean ±SD; for TNFα / Percent change: RA T cells:monocytes 5:1, 18 h; for Percent change: change of TNFα versus untreated control, LY294002 50 μM, Wortmannin 500 nM, Rapamycin 10 μM
Protocol: as §1, with “Rheumatoid arthritis (RA)” for “Osteoarthritis (OA)”, “Tissue” for “As in the case of RA cells (above), OA synovial tissue”, “(Biohittaker,” for “(BioWhittaker,”
CD3+ enriched cells were isolated from RA synovial mononuclear cells by direct, positive selection using Dynabeads (Dynal UK Ltd, Wirral, UK) coated with anti-CD3 monoclonal antibodies (anti-CD3 mAbs). Briefly, mononuclear cells (1×10^7) were cultured with 100 μl anti-CD3 mAb-coated Dynabeads for 20 minutes at 4° C. under constant rotation. Cells attached to beads were isolated using a magnetic particle concentrator (Dynal, Merseyside, UK) and cultured for 6 hours at 37° C. Detached cells were removed from magnetic beads and washed three times using the magnetic particle concentrator.
This technique allowed for isolation of CD3+ cells, yielding cells of high purity (>99%) and viability (>95%). Following isolation, CD3+ enriched cells were washed three times in RPMI medium containing 1% heat-inactivated FCS, fixed for 1 minute at 0° C. in phosphate-buffered saline (PBS) containing 0.05% glutaraldehyde, and neutralized with an equivalent volume of T lymphocyte neutralizing buffer containing 0.2 M glycine. Following a further three washes, the fixed CD3+ cells were resuspended (at a concentration of 2×10^6 cell/ml) in RPMI medium containing 5% heat-inactivated FCS, and stored for up to 7 days at 4° C. until used. Prior to use, CD3+ enriched cells were washed twice in complete medium.
Monocytes were cultured at 1×10^6 cells/ml in RPMI 1640 medium (containing 5% heat-inactivated FCS) in round-bottomed 96-well culture plates (Nunc Life Technologies Ltd., Paisley, Scotland) in the presence of fixed T cells at varying T-cell/monocyte ratios ranging from 1:1 to 7:1 (as indicated). In some experiments, a semi-permeable membrane insert (Nunc Life Technologies Ltd., Paisley, Scotland) was fitted into the culture wells to physically separate the monocytes from the T cells. In all experiments, efficient fixation of T cells was tested by incubating an aliquot of T-cells (7×10^6 cells/ml) in the absence of monocytes and assaying the amount of TNFα released by the cells under these conditions. Lipopolysaccharide (LPS, 10 ng/ml) was included in experiments as a positive control for monocyte cytokine production.
as §2
For monocyte/T-cell co-culture experiments, monocytes were cultured with relevant enzyme inhibitors at 37° C. for varying periods of time (see legend to Table 2) prior to co-culture with fixed T-cells for 18 hours. Supernatants were harvested and assayed for presence of TNFα by ELISA. Cell suspensions were taken for determination of cell viability. […]
The effect of wortmannin and LY294002 was also studied on monocyte TNFα production induced by RA CD3+ ve enriched cells (see Table 2). Normal monocytes isolated by elutriation were treated with selective enzyme inhibitors for the designated times prior to co-culture with fixed rheumatoid CD3+ T cells at a ratio 5:1 (T cells to monocytes) for 18 hours. […]

[4] = test system: monocyte TNFα production induced by cytokine stimulated T cells (Tck cells); assay: Tck cell-induced TNFα production by monocytes (co-culture, ELISA); conditions: T cells stimulated with IL-2, IL-6 and TNFα; results not shown
Protocol: Human peripheral blood T cells and monocytes were isolated from single donor plateletpheresis residues (purchased from the North London Blood Transfusion service, Colindale, GB). Mononuclear cells were isolated by Ficoll/Hypaque centrifugation (specific density 1.077 g/ml, Nycomed Pharma AS, Oslo, Norway), prior to cell separation in a Beckman JE6 elutriator. Elutriation was performed in culture medium containing 1% heat-inactivated foetal calf serum (FCS) using methods known in the art (see Sebbag et al., 1997, Parry et al., 1997). T cell and monocyte purity were assessed by flow cytometry (see Sebbag et al., 1997). […]
as §3, §4

pIC50 [2]: 7.15
SMILES: O=c1cc(N2CCOCC2)oc2c(-c3ccccc3)cccc12 [LY294002]
TNFα production ([1]; culture OA 1833, LY 294002 0.005 μM, 0.0 μM: 224 ± 15): 236 ± 11 pg/mL
TNFα production ([1]; culture OA 1833, LY 294002 0.05 μM, 0.0 μM: 224 ± 15): 235 ± 22 pg/mL
TNFα production ([1]; culture OA 1833, LY 294002 0.5 μM, 0.0 μM: 224 ± 15): 233 ± 28 pg/mL
TNFα production ([1]; culture OA 1833, LY 294002 5.0 μM, 0.0 μM: 224 ± 15): 202 ± 15 pg/mL
TNFα production ([1]; culture OA 1833, LY 294002 50.0 μM, 0.0 μM: 224 ± 15): 204 ± 5 pg/mL
TNFα production ([1]; culture OA 1840, LY 294002 0.005 μM, 0.0 μM: 635 ± 19): 612 ± 13 pg/mL
TNFα production ([1]; culture OA 1840, LY 294002 0.05 μM, 0.0 μM: 635 ± 19): 642 ± 32 pg/mL
TNFα production ([1]; culture OA 1840, LY 294002 0.5 μM, 0.0 μM: 635 ± 19): 597 ± 38 pg/mL
TNFα production ([1]; culture OA 1840, LY 294002 5.0 μM, 0.0 μM: 635 ± 19): 651 ± 50 pg/mL
TNFα production ([1]; culture OA 1840, LY 294002 50.0 μM, 0.0 μM: 635 ± 19): 600 ± 31 pg/mL
TNFα production ([1]; culture OA 1851, LY 294002 0.005 μM, 0.0 μM: 227 ± 19): 236 ± 13 pg/mL
TNFα production ([1]; culture OA 1851, LY 294002 0.05 μM, 0.0 μM: 227 ± 19): 250 ± 12 pg/mL
TNFα production ([1]; culture OA 1851, LY 294002 0.5 μM, 0.0 μM: 227 ± 19): 237 ± 63 pg/mL
TNFα production ([1]; culture OA 1851, LY 294002 5.0 μM, 0.0 μM: 227 ± 19): 233 ± 15 pg/mL
TNFα production ([1]; culture OA 1851, LY 294002 50.0 μM, 0.0 μM: 227 ± 19): 246 ± 31 pg/mL
TNFα production ([1]; culture OA 1861, LY 294002 0.005 μM, 0.0 μM: 155 ± 42): 141 ± 33 pg/mL
TNFα production ([1]; culture OA 1861, LY 294002 0.05 μM, 0.0 μM: 155 ± 42): 127 ± 5 pg/mL
TNFα production ([1]; culture OA 1861, LY 294002 0.5 μM, 0.0 μM: 155 ± 42): 145 ± 29 pg/mL
TNFα production ([1]; culture OA 1861, LY 294002 5.0 μM, 0.0 μM: 155 ± 42): 131 ± 44 pg/mL
TNFα production ([1]; culture OA 1861, LY 294002 50.0 μM, 0.0 μM: 155 ± 42): 215 ± 9 pg/mL
TNFα production ([1]; culture OA 1862, LY 294002 0.005 μM, 0.0 μM: 141 ± 35): 166 ± 31 pg/mL
TNFα production ([1]; culture OA 1862, LY 294002 0.05 μM, 0.0 μM: 141 ± 35): 171 ± 55 pg/mL
TNFα production ([1]; culture OA 1862, LY 294002 0.5 μM, 0.0 μM: 141 ± 35): 185 ± 7 pg/mL
TNFα production ([1]; culture OA 1862, LY 294002 5.0 μM, 0.0 μM: 141 ± 35): 226 ± 100 pg/mL
TNFα production ([1]; culture OA 1862, LY 294002 50.0 μM, 0.0 μM: 141 ± 35): 205 ± 19 pg/mL
effect on TNFα production in cultures of OA synovial tissue ([1]; varying concentrations, five different samples): no significant effect
TNFα [3]: 883 ± 304 pg/mL and 883 ± 38 pg/mL
Percent change ([3]; AKTA 5 mM): +29%

SMILES: CO[C@H]1C[C@@H]2CC[C@@H](C)[C@@](O)(O2)C(=O)C(=O)N2CCCC[C@H]2C(=O)O[C@H]([C@H](C)C[C@@H]2CC[C@@H](O)[C@H](OC)C2)CC(=O)[C@H](C)/C=C(\C)[C@@H](O)[C@@H](OC)C(=O)[C@H](C)C[C@H](C)/C=C/C=C/C=C/1C [Rapamycin, rapamycin]
effect on monocyte TNFα production induced by cytokine stimulated T cells [4]: no effect
effect on monocyte TNFα production induced by anti-CD3 antibody stimulated T cells ([2]; results not shown): no effect
effect on TNFα production in monocytes stimulated by RA T-cells ([3]; AKTA 5 mM, rapamycin 10 μM, T cells:monocytes 5:1): no significant effect
TNFα [3]: 399 ± 21 pg/mL
Percent change ([3]; AKTA 5 mM): −42%

SMILES: COC[C@H]1OC(=O)c2coc3c2[C@@]1(C)C1=C(C3=O)[C@@H]2CCC(=O)[C@@]2(C)C[C@H]1OC(C)=O [Wortmannin, wortmannin]
pIC50 [2]: 10.30
TNFα [3]: 7333 ± 304 pg/mL
TNFα ([3]; listed as wortmannin): 7333 ± 304 pg/mL
Percent change ([3]; AKTA 5 mM): +968%
